According to US8658791B2, “2-substituted-6-amino-5-alkyl, alkenyl or alkynyl-4-pyrimidinecarboxylic acids and 6-substituted-4-amino-3-alkyl, alkenyl or alkynyl picolinic acids and their use as herbicides” (Dow AgroSciences, LLC, priority 2007, dated 2014):

How the values were obtained:
[1] = test system: lambsquarter (Chenopodium album); experiment: General postemergence herbicidal activity, CHEAL; type: in vivo; details: Chenopodium album, post-emergence, 336 h, postemergence spray, visual score after 14 days, 0 = no injury, 100 = complete kill, read-out: Post-emergent Weed Control CHEAL; for pest or weed control at 280 g/ha: 280 g ai/ha; for pest or weed control at 140 g/ha: 140 g ai/ha; for pest or weed control at 70 g/ha: 70 g ai/ha
Summary of the method: (§1)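 Greenhouse-grown plants at the first or second true leaf stage are sprayed at 187 L/ha and kept 14 days, watered from below to prevent wash-off. Percent injury (0–100) is judged by eye against untreated plants.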

[2] = test system: wild poinsettia (Euphorbia heterophylla); experiment: General preemergence herbicidal activity, EPHHL; type: in vivo; details: applied to soil surface, visual score after 20-22 days, 0 = no injury, 100 = complete kill or no emergence, read-out: Pre-emergent Weed Control EPHHL; for pest or weed control at 140 g/ha: 140 g ai/ha
Source text: (§2) Seeds of the desired test plant species were planted in a soil matrix prepared by mixing a loam soil (43 percent silt, 19 percent clay, and 38 percent sand, with a pH of about 8.1 and an organic matter content of about 1.5 percent) and sand in a 70 to 30 ratio. The soil matrix was contained in plastic pots with a surface area of 127 square centimeters. When required to ensure good germination and healthy plants, a fungicide treatment and/or other chemical or physical treatment was applied. A weighed amount, determined by the highest rate to be tested, of each test compound was placed in a 25 mL glass vial and was dissolved in 6 mL of a 97:3 v/v (volume/volume) mixture of acetone and DMSO to obtain concentrated stock solutions. […] The stock solutions obtained were diluted with 18 mL of a 0.1% v/v aqueous solution of Tween® 20 surfactant to obtain spray solutions containing the highest application rate. Additional application rates were obtained by serial dilution of 12 mL of the high rate solution into a solution containing 3 mL of 97:3 v/v mixture of acetone and DMSO and 9 mL of the 0.1% v/v aqueous solution of Tween® 20 surfactant to obtain 1/2X, 1/4X, 1/8X and 1/16X rates of the high rate. Compound requirements are based upon a 12 mL application volume at a rate of 187 L/ha. Formulated compounds were applied to the soil surface with an overhead Mandel track sprayer equipped with a […] nozzles calibrated to deliver 187 L/ha over an application area of 0.503 square meters at a spray height of 18 inches (43 cm) above the soil surface. Control pots were sprayed in the same manner with the solvent blank. The treated pots and control pots were placed in a greenhouse maintained with an approximate 15 hour photoperiod and temperatures of about 23-29° C. during the day and 22-28° C. during the night. Nutrients and water were added on a regular basis and supplemental lighting was provided with overhead metal halide 1000-Watt lamps as necessary. The water was added by top-irrigation. After 20-22 days, the condition of the test plants that germinated and grew as compared with that of the untreated plants that emerged and grew was determined visually and scored on a scale of 0 to 100 percent where 0 corresponds to no injury and 100 corresponds to complete kill or no emergence.

rice (Oryza sativa) [3] = experiment: General preemergence herbicidal activity, ORYSA; type: in vivo; details: applied to soil surface, visual score after 20-22 days, 0 = no injury, 100 = complete kill or no emergence, read-out: Pre-emergent Weed Control ORYSA; for plant injury at 140 g/ha: 140 g ai/ha
Source text: as §2

rice (Oryza sativa) [4] = experiment: General postemergence herbicidal activity, ORYSA; type: in vivo; details: Oryza sativa, post-emergence, 336 h, postemergence spray, visual score after 14 days, 0 = no injury, 100 = complete kill, read-out: Post-emergent Weed Control ORYSA; for plant injury at 280 g/ha: 280 g ai/ha; for plant injury at 140 g/ha: 140 g ai/ha; for plant injury at 70 g/ha: 70 g ai/ha
Summary of the method: as §1

[5] = test system: barnyardgrass (Echinochloa crus-galli); experiment: General preemergence herbicidal activity, ECHCG; type: in vivo; details: applied to soil surface, visual score after 20-22 days, 0 = no injury, 100 = complete kill or no emergence, read-out: Pre-emergent Weed Control ECHCG; for pest or weed control at 140 g/ha: 140 g ai/ha
Source text: as §2

[6] = test system: velvetleaf (Abutilon theophrasti); experiment: General postemergence herbicidal activity, ABUTH; type: in vivo; details: Abutilon theophrasti, post-emergence, 336 h, postemergence spray, visual score after 14 days, 0 = no injury, 100 = complete kill, read-out: Post-emergent Weed Control ABUTH; for pest or weed control at 280 g/ha: 280 g ai/ha; for pest or weed control at 140 g/ha: 140 g ai/ha; for pest or weed control at 70 g/ha: 70 g ai/ha
Summary of the method: as §1

[7] = test system: lambsquarter (Chenopodium album); experiment: General preemergence herbicidal activity, CHEAL; type: in vivo; details: applied to soil surface, visual score after 20-22 days, 0 = no injury, 100 = complete kill or no emergence, read-out: Pre-emergent Weed Control CHEAL; for pest or weed control at 140 g/ha: 140 g ai/ha
Source text: as §2

[8] = test system: wild poinsettia (Euphorbia heterophylla); experiment: General postemergence herbicidal activity, EPHHL; type: in vivo; details: Euphorbia heterophylla, post-emergence, 336 h, postemergence spray, visual score after 14 days, 0 = no injury, 100 = complete kill, read-out: Post-emergent Weed Control EPHHL; for pest or weed control at 280 g/ha: 280 g ai/ha; for pest or weed control at 140 g/ha: 140 g ai/ha; for pest or weed control at 70 g/ha: 70 g ai/ha
Summary of the method: as §1

[9] = test system: velvetleaf (Abutilon theophrasti); experiment: General preemergence herbicidal activity, ABUTH; type: in vivo; details: applied to soil surface, visual score after 20-22 days, 0 = no injury, 100 = complete kill or no emergence, read-out: Pre-emergent Weed Control ABUTH; for pest or weed control at 140 g/ha: 140 g ai/ha
Source text: as §2

[10] = test system: barnyardgrass (Echinochloa crus-galli); experiment: General postemergence herbicidal activity, ECHCG; type: in vivo; details: Echinochloa crus-galli, post-emergence, 336 h, postemergence spray, visual score after 14 days, 0 = no injury, 100 = complete kill, read-out: Post-emergent Weed Control ECHCG; for pest or weed control at 280 g/ha: 280 g ai/ha; for pest or weed control at 140 g/ha: 140 g ai/ha; for pest or weed control at 70 g/ha: 70 g ai/ha
Summary of the method: as §1

Row | Structure (SMILES) | melting point [°C] | pest or weed control at 140 g/ha [2] [%] | plant injury at 140 g/ha (rice (Oryza sativa) [3]) [%] | pest or weed control at 140 g/ha [5] [%] | pest or weed control at 140 g/ha [7] [%] | pest or weed control at 140 g/ha [9] [%] | pest or weed control at 140 g/ha [1] [%] | plant injury at 140 g/ha (rice (Oryza sativa) [4]) [%] | pest or weed control at 140 g/ha [6] [%] | pest or weed control at 140 g/ha [8] [%] | pest or weed control at 140 g/ha [10] [%] | other results
1 | C=Cc1c(N)nc(C2CC2)nc1C(=O)OCC [Compound 4, 6-Amino-2-cyclopropyl-5-vinylpyrimidine-4-carboxylic acid ethyl ester] | 155 to 157 |  |  |  |  |  | 100 | 0 | 100 | 100 | 0 | pest or weed control at 280 g/ha ([2]; 280 g ai/ha): 100%; plant injury at 280 g/ha (rice (Oryza sativa) [3]; 280 g ai/ha): 0%; pest or weed control at 280 g/ha ([5]; 280 g ai/ha): 50%; pest or weed control at 280 g/ha ([7]; 280 g ai/ha): 100%; pest or weed control at 280 g/ha ([9]; 280 g ai/ha): 90%
2 | C/C=C\c1c(N)nc(-c2ccc(Cl)c(OC)c2F)nc1C(=O)O [Compound 55, 6-Amino-2-(4-chloro-2-fluoro-3-methoxyphenyl)-5-((Z)-propenyl)pyrimidine-4-carboxylic acid] |  | 100 | 30 | 60 | 100 | 100 |  |  |  |  |  | pest or weed control at 70 g/ha [1]: 100%; plant injury at 70 g/ha (rice (Oryza sativa) [4]): 15%; pest or weed control at 70 g/ha [6]: 100%; pest or weed control at 70 g/ha [8]: 100%; pest or weed control at 70 g/ha [10]: 100%
3 | C=Cc1c(N)cc(-c2ccc(Cl)c(OC)c2F)nc1C(=O)O [Compound 59, 4-Amino-6-(4-chloro-2-fluoro-3-methoxyphenyl)-3-vinylpyridine-2-carboxylic acid] |  | 100 | 0 | 100 | 100 | 100 | 100 | 0 | 100 | 100 | 100 | 

Further lines, with some results ahead:

Row | melting point [°C] | Structure (SMILES) | pest or weed control at 140 g/ha [2] [%] | plant injury at 140 g/ha (rice (Oryza sativa) [3]) [%] | pest or weed control at 140 g/ha [5] [%] | pest or weed control at 140 g/ha [7] [%] | pest or weed control at 140 g/ha [9] [%] | pest or weed control at 140 g/ha [1] [%] | plant injury at 140 g/ha (rice (Oryza sativa) [4]) [%] | pest or weed control at 140 g/ha [6] [%] | pest or weed control at 140 g/ha [8] [%] | pest or weed control at 140 g/ha [10] [%] | other results
4 | 168 to 170 | COC(=O)c1nc(-c2ccc(Cl)c(OC)c2F)nc(N)c1C [Compound 2, 6-Amino-2-(4-chloro-2-fluoro-3-methoxyphenyl)-5-methylpyrimidine-4-carboxylic acid methyl ester] | 95 | 15 | 0 | 80 | 40 |  |  |  |  |  | pest or weed control at 280 g/ha [1]: 100%; plant injury at 280 g/ha (rice (Oryza sativa) [4]): 0%; pest or weed control at 280 g/ha [6]: 95%; pest or weed control at 280 g/ha [8]: 100%; pest or weed control at 280 g/ha [10]: 95%
5 | 137 to 139 | C=Cc1c(N)nc(-c2ccc(Cl)cc2F)nc1C(=O)OC [Compound 5, 6-Amino-2-(4-chloro-2-fluorophenyl)-5-vinylpyrimidine-4-carboxylic acid methyl ester] | 90 | 10 | 0 | 95 | 100 | 100 | 5 | 100 | 100 | 80 | 
6 | 144 to 147 | C=Cc1c(N)nc(-c2ccc(Cl)c(C(C)F)c2F)nc1C(=O)OC (stereo not drawn) [Compound 14, 6-amino-2-(4-chloro-2-fluoro-3-(1-fluoroethyl)phenyl)-5-vinylpyrimidine-4-carboxylic acid methyl ester] | 100 | 95 | 95 | 100 | 100 |  |  |  |  |  | pest or weed control at 70 g/ha [1]: 100%; plant injury at 70 g/ha (rice (Oryza sativa) [4]): 10%; pest or weed control at 70 g/ha [6]: 100%; pest or weed control at 70 g/ha [8]: 100%; pest or weed control at 70 g/ha [10]: 100%
7 | 118 to 121 | C=Cc1c(N)cc(-c2ccc(Cl)c(OC)c2F)nc1C(=O)OC [Compound 28, 4-Amino-6-(4-chloro-2-fluoro-3-methoxyphenyl)-3-vinylpyridine-2-carboxylic acid methyl ester] | 100 | 20 | 70 | 95 | 95 |  |  |  |  |  | pest or weed control at 280 g/ha [1]: 75%; plant injury at 280 g/ha (rice (Oryza sativa) [4]): 0%; pest or weed control at 280 g/ha [6]: 85%; pest or weed control at 280 g/ha [8]: 90%; pest or weed control at 280 g/ha [10]: 75%
8 | 167 to 169 | C=Cc1c(N)nc(-c2ccc(Cl)cc2F)nc1C(=O)O [Compound 42, 6-Amino-2-(4-chloro-2-fluorophenyl)-5-vinylpyrimidine-4-carboxylic acid] | 100 | 10 | 30 | 100 | 100 |  |  |  |  |  | 
